Where “and” joins values, the source holds several entries; their conditions need not be identical. Identical values can stand only once.
Conditions: Liquid; for mass density: 100 kPa, Vibrating tube method; for viscosity / electrical conductivity / self diffusion coefficient: 101.33 kPa; for electrical conductivity: Alternating current cell with electrodes; for self diffusion coefficient: NMR spin-echo technique

C[N+](C)(C)CCO.O=S(=O)([N-]S(=O)(=O)C(F)(F)F)C(F)(F)F [choline bis(trifluoromethylsulfonyl)imide]
Conditions	mass density [kg/m3]
313.15 K	1513.41
315.65 K	1511.12
318.15 K	1508.82
323.15 K	1504.27
328.15 K	1499.7
333.15 K	1495.16
338.15 K	1490.66
343.15 K	1486.16
348.15 K	1481.69
353.15 K	1477.22
358.15 K	1472.78
363.15 K	1468.35

CCn1cc[n+](C)c1.N#C[B-](C#N)(C#N)C#N [1-ethyl-3-methylimidazolium tetracyanoborate]
Falling or rolling sphere viscometry
Conditions	viscosity
263.15 K	111.3 mPa·s
264.05 K	108.4 mPa·s
265.65 K	96.35 mPa·s and 96.52 mPa·s
268.15 K	81 mPa·s [middle of 6 runs]
273.15 K	58.91 mPa·s and 58.87 mPa·s and 60.07 mPa·s
278.15 K	44.77 mPa·s
283.15 K	34.55 mPa·s and 34.65 mPa·s and 34.73 mPa·s
288.15 K	27.4 mPa·s and 27.3 mPa·s and 27.14 mPa·s
293.15 K	22.35 mPa·s [middle of 6 runs]
296.15 K	19.62 mPa·s [middle of 4 runs]
298.15 K	18.51 mPa·s [middle of 4 runs]
300.15 K	17.16 mPa·s and 16.93 mPa·s
303.15 K	15.47 mPa·s and 15.64 mPa·s and 15.62 mPa·s
313.15 K	11.25 mPa·s [middle of 5 runs]
323.15 K	8.531 mPa·s and 8.521 mPa·s and 8.518 mPa·s
333.15 K	6.68 mPa·s
338.15 K	5.992 mPa·s and 6.022 mPa·s
343.15 K	5.399 mPa·s and 5.4 mPa·s and 5.395 mPa·s
348.15 K	4.921 mPa·s and 4.92 mPa·s
353.15 K	4.458 mPa·s and 4.455 mPa·s and 4.454 mPa·s

Conditions	mass density [kg/m3]
273.15 K	1056.29
283.15 K	1048.19
293.15 K	1040.2
298.15 K	1036.25
303.15 K	1032.31
313.15 K	1024.52
323.15 K	1016.81
333.15 K	1009.19
343.15 K	1001.66
353.15 K	994.2
363.15 K	986.83

CCn1cc[n+](C)c1.CS(=O)(=O)[O-] [1-ethyl-3-methylimidazolium methanesulfonate]
Conditions	electrical conductivity	mass density [kg/m3]	self diffusion coefficient [m2/s]
273.15 K	0.0413 S/m	–	–
278.15 K	0.0656 S/m	1256.19	–
280.65 K	–	1254.4	–
283.15 K	0.0988 S/m	1252.62	–
285.65 K	–	1250.84	–
288.15 K	0.142 S/m	1249.07	–
293.15 K	0.197 S/m	1245.55	–
294 K	–	–	7.63e-12
296.58 K	–	–	9e-12
296.62 K	–	–	9.07e-12
298.15 K	0.265 S/m and 0.259 S/m	1242.06	–
298.98 K	–	–	1.02e-11
299.01 K	–	–	1.03e-11
300.65 K	0.298 S/m	–	–
301.63 K	–	–	1.23e-11
301.77 K	–	–	1.24e-11
303.15 K	0.346 S/m and 0.34 S/m	1238.7	–
304 K	–	–	1.35e-11
304.01 K	–	–	1.34e-11
305.65 K	0.386 S/m	–	–
306.53 K	–	–	1.52e-11
306.58 K	–	–	1.55e-11
308.15 K	0.435 S/m	–	–
310.65 K	0.488 S/m	–	–
313.15 K	0.553 S/m	1231.94	–
313.69 K	–	–	2.21e-11
313.74 K	–	–	2.21e-11
323.15 K	0.821 S/m	1225.21	–
323.7 K	–	–	3.42e-11
323.73 K	–	–	3.43e-11
333.15 K	1.15 S/m	1218.52	–
333.42 K	–	–	5.06e-11
333.52 K	–	–	5.07e-11
343.15 K	1.55 S/m	1211.87	–
343.66 K	–	–	7.13e-11
343.73 K	–	–	7.12e-11
353.15 K	1.99 S/m	1205.26	–
353.4 K	–	–	9.71e-11
353.61 K	–	–	9.7e-11
363.15 K	–	1198.74	–

viscosity
Conditions	Concentric cylinders viscometry	Falling or rolling sphere viscometry
273.15 K	1250.4 mPa·s	–
278.15 K	749.3 mPa·s	–
283.15 K	475.8 mPa·s	472.2 mPa·s and 472.4 mPa·s
285.65 K	–	379 mPa·s
288.15 K	317.1 mPa·s	314.8 mPa·s and 315.7 mPa·s
293.15 K	219.7 mPa·s and 220.2 mPa·s and 220 mPa·s	218.9 mPa·s and 219.3 mPa·s
296.15 K	–	181.5 mPa·s and 179.5 mPa·s and 179.8 mPa·s
298.15 K	158.2 mPa·s	159.8 mPa·s and 160.6 mPa·s
300.15 K	–	138.8 mPa·s [middle of 4 runs]
303.15 K	115.6 mPa·s	116.3 mPa·s
305.65 K	–	101.8 mPa·s and 102 mPa·s
308.15 K	–	89.34 mPa·s and 89.37 mPa·s
313.15 K	66.71 mPa·s	69.08 mPa·s and 69.13 mPa·s and 69.74 mPa·s
323.15 K	43.42 mPa·s	44.52 mPa·s and 44.54 mPa·s
333.15 K	30.27 mPa·s	30.49 mPa·s and 30.68 mPa·s
343.15 K	22.11 mPa·s	21.93 mPa·s and 21.98 mPa·s
353.15 K	16.66 mPa·s	16.42 mPa·s and 16.46 mPa·s
363.15 K	12.94 mPa·s	12.73 mPa·s and 12.81 mPa·s

CC1COC(=O)O1 (centres undefined) [4-methyl-1,3-dioxolan-2-one]
Conditions	mass density [kg/m3]	self diffusion coefficient
251.94 K	–	1.29e-10 m2/s
251.99 K	–	1.25e-10 m2/s and 1.24e-10 m2/s
262.92 K	–	1.95e-10 m2/s and 1.9e-10 m2/s
262.93 K	–	1.96e-10 m2/s and 1.93e-10 m2/s
273.09 K	–	2.76e-10 m2/s and 2.73e-10 m2/s
273.15 K	1226.25	2.73e-10 m2/s and 2.65e-10 m2/s
278.15 K	1220.9	–
278.27 K	–	3.12e-10 m2/s
278.28 K	–	3.19e-10 m2/s
278.51 K	–	3.19e-10 m2/s
283.15 K	1215.55	–
283.25 K	–	3.7e-10 m2/s and 3.63e-10 m2/s
283.27 K	–	3.7e-10 m2/s and 3.68e-10 m2/s
288.26 K	–	4.06e-10 m2/s and 4.1e-10 m2/s and 4.07e-10 m2/s
293.15 K	1204.89	–
293.21 K	–	4.58e-10 m2/s
293.27 K	–	4.62e-10 m2/s and 4.6e-10 m2/s
298.05 K	–	5.14e-10 m2/s
298.14 K	–	5.02e-10 m2/s and 5.01e-10 m2/s
298.15 K	1199.58	–
298.19 K	–	5.24e-10 m2/s and 5.21e-10 m2/s
298.21 K	–	5.23e-10 m2/s
298.26 K	–	5.24e-10 m2/s
303.15 K	1194.27	–
303.18 K	–	5.99e-10 m2/s and 5.89e-10 m2/s
303.19 K	–	5.98e-10 m2/s and 5.86e-10 m2/s
308.21 K	–	6.71e-10 m2/s and 6.58e-10 m2/s
308.27 K	–	6.74e-10 m2/s and 6.54e-10 m2/s
308.78 K	–	6.55e-10 m2/s
308.86 K	–	6.59e-10 m2/s
313.15 K	1183.67	–
313.39 K	–	7.44e-10 m2/s and 7.43e-10 m2/s
313.41 K	–	7.32e-10 m2/s and 7.46e-10 m2/s
318.26 K	–	8.17e-10 m2/s and 8.06e-10 m2/s
318.4 K	–	8.14e-10 m2/s and 8.18e-10 m2/s
323.15 K	1173.08	–
323.2 K	–	8.97e-10 m2/s and 9.06e-10 m2/s
323.25 K	–	9.05e-10 m2/s and 8.92e-10 m2/s
323.65 K	–	8.96e-10 m2/s and 8.76e-10 m2/s
323.67 K	–	8.78e-10 m2/s and 8.71e-10 m2/s
333.08 K	–	1.05e-09 m2/s
333.13 K	–	1.04e-09 m2/s
333.15 K	1162.5	–
342.8 K	–	1.22e-09 m2/s
342.86 K	–	1.18e-09 m2/s
343.15 K	1151.92	–
352.52 K	–	1.4e-09 m2/s
352.61 K	–	1.42e-09 m2/s
352.68 K	–	1.35e-09 m2/s
353.15 K	1141.33	–
363.15 K	1130.73	–

CCn1cc[n+](C)c1.O=S(=O)([O-])C(F)(F)F [1-ethyl-3-methylimidazolium trifluoromethanesulfonate]
Falling or rolling sphere viscometry
Conditions	viscosity
268.15 K	172.2 mPa·s and 172.4 mPa·s
273.15 K	130.7 mPa·s and 130.6 mPa·s
278.15 K	102.3 mPa·s and 102 mPa·s
283.15 K	80.26 mPa·s and 80.24 mPa·s
293.15 K	52.45 mPa·s
298.15 K	43.54 mPa·s [middle of 4 runs]
300.65 K	39.67 mPa·s and 39.64 mPa·s
303.15 K	36.27 mPa·s
305.65 K	33.3 mPa·s and 33.29 mPa·s
308.15 K	30.75 mPa·s and 30.7 mPa·s
313.15 K	26.21 mPa·s and 26.2 mPa·s
323.15 K	19.57 mPa·s and 19.48 mPa·s
333.15 K	15.02 mPa·s
343.15 K	11.78 mPa·s and 11.73 mPa·s
348.15 K	10.51 mPa·s

Conditions	electrical conductivity	mass density
273.15 K	0.346 S/m	1407.23 kg/m3
278.15 K	0.433 S/m	1402.99 kg/m3
283.15 K	0.534 S/m	1398.75 kg/m3
288.15 K	0.647 S/m	–
293.15 K	0.772 S/m	1390.28 kg/m3 and 1390.27 kg/m3
298.15 K	0.915 S/m and 0.91 S/m	1386.04 kg/m3 and 1386.06 kg/m3
303.15 K	1.06 S/m	1381.85 kg/m3
313.15 K	1.42 S/m	1373.47 kg/m3 and 1373.45 kg/m3
323.15 K	1.82 S/m	1365.14 kg/m3
333.15 K	2.25 S/m	1356.86 kg/m3
343.15 K	2.76 S/m	1348.64 kg/m3
353.15 K	3.29 S/m	1340.46 kg/m3
363.15 K	–	1332.32 kg/m3

Reference: the NIST ThermoML archive (doi:10.1021/acs.jced.6b00021)
